From patent publication US20220306585A1, “PYRAZOLE DERIVATIVES FOR CONTROLLING ARTHROPODS” (Bayer Animal Health GmbH, priority 2019, published 2022)
Values after ≈ are worked out from the molar mass of the structure shown.

Columns and labels:
[1] = Measurement of stability of prodrugs in buffer at pH 7.4; type: physicochemical; conditions: PBS buffer pH 7.4, 37° C., HPLC peak area, read-out: % Recovery after 24 h (stability at pH 7.4)
Procedure: Preparation of the PBS buffer solution pH 7.4: 90 g sodium chloride, 13.61 g potassium dihydrogen phosphate, 83.35 g 1M aqueous sodium hydroxide were dissolved in water. More water was added up to a total volume of 1 L. This solution was diluted 1:10 with water. Eventually, pH was adjusted to pH 7.4 by the addition of phosphoric acid.
Measurement of Stability of Prodrugs in Buffer at pH 7.4
0.15 mg of the test compound were dissolved in 0.1 mL dimethylsulfoxide and 0.4 mL acetonitrile. For complete dissolution, the HPLC vial with the sample solution was shaken and treated with ultrasound. Then, 1.0 mL of PBS buffer solution pH 7.4 was added and the sample was vortexed. The sample solution was analysed by HPLC (method 8) to determine the amount of the test compound at a particular time over a period of 24 h at 37° C. The peak areas, given as percentage of total area, are used for quantification. In addition, the reaction mixture was analysed by method 9 (HPLC-MS) at the final timepoint.

[2] = Degradation of prodrugs and release of parent drug in rat plasma; type: in vitro ADME; conditions: male, Hannover-Janvier RjHan, rat plasma (Li-heparin), 37° C., percent area of prodrug at t0
Procedure: Measurement of Release of Parent Drug in Rat Plasma 1 mg of the test compound was dissolved in 0.5 mL acetonitrile/dimethylsulfoxide 9:1. For complete dissolution the HPLC vial was shaken and treated with ultrasound. 20 μL of this solution were added to 1 mL of rat plasma (Li-heparin plasma, Hannover-Janvier rat, RjHan male) with vortexing at a temperature of 37° C. Aliquots (100 μL each) were taken at 0.17, 0.5, 1, 1.5, 2 and 4 hours. Each aliquot was transferred to a vial containing 300 μL of acetonitrile/citric acid buffer pH 3 8:2. These solutions were centrifuged at 5000 rpm for 10 minutes. The supernatant was analysed by HPLC (Method 8) to determine the amount of the test compound. In addition, the reaction mixture was analysed by method 9 (HPLC-MS) at the final timepoint. Both decrease of the prodrug concentration and increase of parent drug concentration were monitored. All data is given as percent area of the prodrug at to.

[3] = Measurement of solubility in buffer at pH 6.5; type: physicochemical; conditions: aqueous buffer, kinetic from dmso stock; PBS buffer pH 6.5, shaken 24 h at rt, LC-MSMS; read-out: Solubility of example compounds at pH 6.5
Procedure: Measurement of Solubility in Buffer at pH 6.5 2-4 mg of the test compound are dissolved in DMSO to reach a concentration of 50 g/L (solution A). To 10 μL of this solution 960 μL PBS buffer pH 6.5 are added (final concentration: […]); the mixture is shaken for 24 h at rt in a 96 well plate. An aliquot is centrifuged at 42000 rpm für 30 min. The supernatant is diluted with acetonitrile/water (8:2) 1:10 and 1:1000 resp. This diluted samples are analyzed by LC-MSMS. Calibration: 10 μL of solution A are diluted with 823 μL DMSO (final concentration: 600 μg/mL), which is further diluted with acetonitrile/water 8:2 by a factor of 100 (provides solution B). The calibration curve is obtained from solution B by further diluting with acetonitrile/water 8:2 with target concentrations of 1.2-12-60-600 ng/mL and injecting these four solutions for MS measurement. PBS-Puffer: 6.18 g sodium chloride and 3.96 g sodium dihydrogen phosphate are dissolved in 1 L aqua dist., the pH is adjusted to 6.5 with IN sodium hydroxide.

Structure (SMILES) | recovery at 24 h, 0.1 mg/mL [1] [%] | recovery at 0.17 h, 39 µg/mL [2] [%] | recovery at 0.5 h, 39 µg/mL [2] [%] | recovery at 1 h, 39 µg/mL [2] [%] | recovery at 1.5 h, 39 µg/mL [2] [%] | recovery at 2 h, 39 µg/mL [2] [%] | recovery at 4 h, 39 µg/mL [2] [%] | solubility at 24 h [3] [µg/mL]
Cn1nc(C(F)(F)C(F)(F)F)c(C(F)(F)F)c1-n1cc(-c2ccc(Cl)c(C(=O)N(COC(=O)C3(C(=O)O)CC3)C3(C#N)CC3)c2)cn1 [Example 5, 1-({[{2-Chloro-5-[2′-methyl-5′-(pentafluoroethyl)-4′-(trifluoromethyl)-2′H-[1,3′-bipyrazol]-4-yl]benzoyl}(1-cyanocyclopropyl)amino]methoxy}carbonyl)cyclopropane-1-carboxylic acid] | 71 |  |  |  |  |  |  | 171 (≈ 246 µM)
Cn1nc(C(F)(F)C(F)(F)F)c(C(F)(F)F)c1-n1cc(-c2ccc(Cl)c(C(=O)N(COC(=O)CCC(=O)O)C3(C#N)CC3)c2)cn1 [Example 6, 4-{[{2-Chloro-5-[2′-methyl-5′-(pentafluoroethyl)-4′-(trifluoromethyl)-2′H-[1,3′-bipyrazol]-4-yl]benzoyl}(1-cyanocyclopropyl)amino]methoxy}-4-oxobutanoic acid] | 90 |  |  |  |  |  |  | 200 (≈ 293 µM)
Cn1nc(C(F)(F)C(F)(F)F)c(C(F)(F)F)c1-n1cc(-c2ccc(Cl)c(C(=O)N(COC(=O)CC(C)(C)C(=O)O)C3(C#N)CC3)c2)cn1 [Example 2, 4-{[{2-Chloro-5-[2′-methyl-5′-(pentafluoroethyl)-4′-(trifluoromethyl)-2′H-[1,3′-bipyrazol]-4-yl]benzoyl}(1-cyanocyclopropyl)amino]methoxy}-2,2-dimethyl-4-oxobutanoic acid] | 55 |  |  |  |  |  |  | 71 (≈ 99.9 µM)

The remaining lines, values ahead:

recovery at 24 h, 0.1 mg/mL [1] [%] | recovery at 0.17 h, 39 µg/mL [2] [%] | recovery at 0.5 h, 39 µg/mL [2] [%] | recovery at 1 h, 39 µg/mL [2] [%] | recovery at 1.5 h, 39 µg/mL [2] [%] | recovery at 2 h, 39 µg/mL [2] [%] | recovery at 4 h, 39 µg/mL [2] [%] | solubility at 24 h [3] [µg/mL] | Structure (SMILES)
96 | 84 | 58 | 26 | 10 | 4 | 0 |  | Cn1nc(C(F)(F)C(F)(F)F)c(C(F)(F)F)c1-n1cc(-c2ccc(Cl)c(C(=O)N(COC(=O)/C=C/C(=O)O)C3(C#N)CC3)c2)cn1 [Example 7, (2E)-4-{[{2-Chloro-5-[2′-methyl-5′-(pentafluoroethyl)-4′-(trifluoromethyl)-2′H-[1,3′-bipyrazol]-4-yl]benzoyl}(1-cyanocyclopropyl)amino]methoxy}-4-oxobut-2-enoic acid]
100 | 91 | 70 | 49 | 33 | 22 | 0 | 46 (≈ 62.4 µM) | Cn1nc(C(F)(F)C(F)(F)F)c(C(F)(F)F)c1-n1cc(-c2ccc(Cl)c(C(=O)N(COC(=O)[C@H]3CC[C@H](C(=O)O)CC3)C3(C#N)CC3)c2)cn1 [Example 12, (trans)-4-({[{2-Chloro-5-[2′-methyl-5′-(pentafluoroethyl)-4′-(trifluoromethyl)-2′H-[1,3′-bipyrazol]-4-yl]benzoyl}(1-cyanocyclopropyl)amino]methoxy}carbonyl)cyclohexane-1-carboxylic acid]
63 |  |  |  |  |  |  | 5 (≈ 6.19 µM) | CC(C)(CC(=O)OCN(C(=O)c1cc(-c2cnn(-c3c(Cl)cc(C(F)(C(F)(F)F)C(F)(F)F)cc3OC(F)(F)F)c2)ccc1Cl)C1(C#N)CC1)C(=O)O [Example 14, 4-{[(2-Chloro-5-{1-[2-chloro-4-(1,1,1,2,3,3,3-heptafluoropropan-2-yl)-6-(trifluoromethoxy)phenyl]-1H-pyrazol-4-yl}benzoyl)(1-cyanocyclopropyl)amino]methoxy}-2,2-dimethyl-4-oxobutanoic acid]
100 | 99 | 98 | 96 | 94 | 92 | 85 | 31 (≈ 42.4 µM) | Cn1nc(C(F)(F)C(F)(F)F)c(C(F)(F)F)c1-n1cc(-c2ccc(Cl)c(C(=O)N(COC(=O)c3ccc(C(=O)O)cc3)C3(C#N)CC3)c2)cn1 [Example 10, 4-({[{2-Chloro-5-[2′-methyl-5′-(pentafluoroethyl)-4′-(trifluoromethyl)-2′H-[1,3′-bipyrazol]-4-yl]benzoyl}(1-cyanocyclopropyl)amino]methoxy}carbonyl)benzoic acid]
